Tests used:
bone-tooth implant = settings: treatment for 4 weeks (1 week before the operation and 3 weeks after); cited from earlier work
[1] = system: titanium implants and hydroxyl apatite-coated implants in the bone of 6 month-old Sprague Dawley rats; assay: Time sequence of osseointegration of implants in rat femur (Example 1, histomorphometry); assay type: in vivo
Procedure: (§1) 6-month old female Spregue-Dawley rats were kept in cages and subjected to a 12-hour day and night rhythm. They had free access to food and water. The animals were kept and fed in accordance with legal regulations and the research was carried out with the approval and under the supervision of the Darmstadt Governmental Presidium.
(§2) The animals were divided at random among the various test groups. They were anaethesized by intraperitoneal administration of ketamine (75 mg/kg) and xylazine (5 mg/kg). Both back legs were sharped and disinfected with Betaisadonna solution. Medioparapatellar arthrotomy of the knee joint was carried out under aseptic conditions and the patella was laterally dislocated. The medullary canal was opened distally in the intercondylar notch and the canal was drilled with a 1.0 mm diameter Kirchner wire down to the proximal metaphysis of the femur. A titanium Kirchner wire was then inserted into the right femur and a hydroxyl apatite-coated Kirchner wire into the left femur as far as the proximal metaphysis. The access hole was closed with bone wax, the patella was replaced, the extensor apparatus of the refined leg was reconstructed, the soft tissue was adapted and the skin was closed by an intracutaneous seam. The back legs were then tested for normal post-operative movement. The animals were at liberty to move freely in their cages and the activity and the load on the hind legs was checked daily.
(§3) Ibandronate or 0.9% NaCl was administered daily as per Examples 1 and 2. After the preset treatment time the animals were euthanased in a carbon dioxide chamber and directly afterwards the two femurs were taken out, completely freed from soft tissue and fixed in alcohol for subsequent histerlogical treatment. […] Particular attention was given to the areas where a change in the bone occurred such as an increase or decrease in trabecular bone, a change in bone density, loosening seams on the implant, periostal or endostal changes. Evaluation in this case was purely descriptive.
(§4) Description of production of preparations by the cut microsection technique for producing histological sections of conventional non-cuttable tissue after Prof. Donath. (K. Donath, G. Breuner: A method for the study of undecalcified bones and teeth with attached soft tissue. The Saege-Schliff (sawing and grinding) technique., J. Oral Pathology 1982, 11:318-26). […]
(§5) Histological investigation of bones under the optical microscope gives knowledge about the overall structure and the distribution of bone components. […] Quantitative evaluation of the results was by histomorphometry.
(§6) The bone-covered area on the metal implant was shown and calculated by histomorphometry, using special software. […]

[2] = system: titanium implants and hydroxyl apatite-coated implants in the bone of 6-month old rats; assay: Osseointegration of implants in rat femur at a defined time, daily versus bolus administration (Example 2); assay type: in vivo
Procedure: as §1, §2, §3, §4, §5, §6

periprosthetic bone loss = settings: treatment with higher doses; cited from earlier work

For `O=P(O)(O)C(Cl)(Cl)P(=O)(O)O` [Clodronate], the “Osteogenesis (bone formation) compared with untreated patients” value (bone-tooth implant) is listed as “more intensive”.
With `CCCCCN(C)CCC(O)(P(=O)(O)O)P(=O)(O)O` [ibandronate, 1-hydroxy-3-(N-methyl-N-pentyl)aminopropyl-1,1-diphosphonic acid] the “Temporal advantage after treatment versus untreated group” value ([1]; 25 μg FAE/kg/d daily s.c.) was “more than 50%”, the “Time to complete integration of the implant” value ([1]; 25 μg FAE/kg/d daily s.c., untreated group nearly complete ingrowth after 37 days) was 18 days and the “Time to complete integration” value ([1]; daily dose of 20 to 30 μg/kg body weight (i.v. equivalent)) was 15 to 20 days. The “Osseointegration compared with the untreated group” value ([1]; daily subcutaneous ibandronate after implantation, rats) was “appreciably improved”, the “Increase in osseointegration compared with the control group” value ([2]; 2a: s.c. 25 μg FAE/kg/d for 15-20 days) was 50% and the “Increase in osseointegration compared with the control group” value ([2]; 2b: s.c. bolus administration, 25 μg FAE/kg/d) was 50%. The “Difference in osseointegration between bolus-treated groups and control group” value ([2]; 2b: s.c. bolus administration, total dose of 1, 5 and 25 μg FAE/kg/d) was “Very significant differences” and the “Difference in osseointegration between bolus administration and cumulative administration” value ([2]; 2c: bolus versus cumulative administration over the entire period) was “No significant differences”.
In the case of `NCCCC(O)(P(=O)(O)O)P(=O)(O)O` [alendronate], the Bone resorption (periprosthetic bone loss) is listed as “considerably slowed down”.

Source: US6680307B1, “Use of ibandronate for promoting osseointegration of endoprostheses” (Roche Diagnostics GmbH, priority 1998, dated 2004)
